# US20080085889A1, “Amidomethyl-Substituted 1-(Carboxyalkyl) Cyclopentyl-Carbonylamino-Benzazepine-N-Acetic Acid Compounds, Process and Intermediate Products for Their Preparation and Pharmaceutical Compositions Containing Them” (SOLVAY PHARMACEUTICALS GmbH, priority 2003, published 2008)
# How the values were obtained:
# [1] = system: formation of ET-1 from Big-ET-1; assay: In vivo inhibition of the Big-ET-1-induced blood pressure increase in anaesthetised rats, i.v. single dose; parameters: species or system Rats (Sprague-Dawley); details: Rattus norvegicus, iv, 5 min before 0.5 nmol/kg Big-ET-1, negative values indicate inhibition, read-out: % substance-related inhibition of the maximum Big-ET effect on SAP vs. control; for change in vivo at 10 µmol/kg: 10 μmol/kg; for change in vivo at 3 µmol/kg: 3 μmol/kg
# Text: 3. In Vivo Investigation of the Inhibitory Action of the Substances on the Formation of ET-1 from Big-ET-1 in Rats
# ET-1 is an endogenous substance with strong vasoconstrictive effect. An increase in the ET-1 level results in an increase in blood pressure. Upon infusion of Big-ET-1, an increase in blood pressure takes place to the extent that ET-1 is produced therefrom by enzyme-catalysed cleavage of Big-ET-1. As a measurement of the enzyme-inhibiting action of the substances, their inhibitory action on the increase in blood pressure induced by infusion of Big-ET-1 was determined.
# Rats (Sprague-Dawley, CRLD=Charles River) were anaesthetised with 1 ml/kg Rompun/Ketavet 1:1. A pressure transducer (Statham) was inserted into the carotid artery to measure blood pressure. One jugular vein was cannulated for administering the substance, and the other for administering Big-ET-1. After a 20-minute equilibration phase, the rats were administered the corresponding test substance of Formula I at a dose of as a rule 10 μmol/kg (if not stated otherwise), or a vehicle. Five minutes later, 0.5 nmol/kg Big-ET-1 was infused over a period of one minute. The systolic (SAP=systolic arterial pressure) and the diastolic (DAP=diastolic arterial pressure) blood pressure and the heart rate were each measured before administration of the substance, then immediately before administration of Big-ET and in each case every five minutes over a period of 30 minutes after Big-ET administration using the pressure transducer in known manner. The maximum Big-ET-induced increase in blood pressure and the maximum lowering of heart rate were calculated from the measured values as the difference between the value measured at the moment of maximum development of the Big-ET action (typically after 5 min.) and the value measured before Big-ET infusion. Furthermore, the integral of the blood pressure curve under the influence of Big-ET-1 was determined over 30 minutes (AUC=area under the curve).
# The percentage inhibition of the maximum Big-ET-1 effect on the systolic arterial blood pressure (SAP) after i.v. administration of the test substances compared with administration of a vehicle is set forth in the following Table 3a:
# Data given in table 3a as negative values indicate an inhibitory effect.
# [2] = system: maximal SAP response to Big-ET; assay: In vivo i.v. potency (ID50) to inhibit maximal SAP response to Big-ET in anesthetized rats; parameters: species or system Rats (Sprague-Dawley); details: Rattus norvegicus, iv, dose at which the pressor effect of Big-ET was suppressed by 50%
# Protocol: Rats (Sprague-Dawley, CRLD=Charles River) were anaesthetised with 1 ml/kg Rompun/Ketavet 1:1. A pressure transducer (Statham) was inserted into the carotid artery to measure blood pressure.
# For intravenous testing, one jugular vein was cannulated for administering the substance, and the other for administering Big-ET-1. […] Five minutes later, 0.5 nmol/kg Big-ET-1 was infused over a period of one minute. SAP, DAP, and heart rate were measured before administration of the substance, then before administration of Big-ET, and subsequently every five minutes after Big-ET administration over a period of 30 minutes using the pressure transducer in known manner. The maximum Big-ET-induced increase in blood pressure was calculated from the measured values as the difference between the value measured at the moment of maximum development of the Big-ET action (typically after 5 min) and the value measured before Big-ET infusion. The dose at which the pressor effect of Big-ET was suppressed by 50% (ID50) was estimated from the inhibitory effects observed over the range of dosages tested (n>5 rats for each dose).
# The intravenous potency of the test compounds of Formula I (given as ID50 values) to inhibit the maximal SAP response to Big ET in anesthetized rats is set forth in the following Table 3b: […]
# [3] = target: T1, soluble, human recombinant NEP (Homo sapiens, UniProt P08473); assay: In-vitro investigation of the NEP inhibitory action (fluorescence-quenched Big-ET-1 analogue, HPLC); assay type: biochemical
# T1 construct: soluble, human recombinant NEP; purchased Prof; Crine, University of Montreal, Canada
# T1 sequence (P08473 52-750 limits assumed): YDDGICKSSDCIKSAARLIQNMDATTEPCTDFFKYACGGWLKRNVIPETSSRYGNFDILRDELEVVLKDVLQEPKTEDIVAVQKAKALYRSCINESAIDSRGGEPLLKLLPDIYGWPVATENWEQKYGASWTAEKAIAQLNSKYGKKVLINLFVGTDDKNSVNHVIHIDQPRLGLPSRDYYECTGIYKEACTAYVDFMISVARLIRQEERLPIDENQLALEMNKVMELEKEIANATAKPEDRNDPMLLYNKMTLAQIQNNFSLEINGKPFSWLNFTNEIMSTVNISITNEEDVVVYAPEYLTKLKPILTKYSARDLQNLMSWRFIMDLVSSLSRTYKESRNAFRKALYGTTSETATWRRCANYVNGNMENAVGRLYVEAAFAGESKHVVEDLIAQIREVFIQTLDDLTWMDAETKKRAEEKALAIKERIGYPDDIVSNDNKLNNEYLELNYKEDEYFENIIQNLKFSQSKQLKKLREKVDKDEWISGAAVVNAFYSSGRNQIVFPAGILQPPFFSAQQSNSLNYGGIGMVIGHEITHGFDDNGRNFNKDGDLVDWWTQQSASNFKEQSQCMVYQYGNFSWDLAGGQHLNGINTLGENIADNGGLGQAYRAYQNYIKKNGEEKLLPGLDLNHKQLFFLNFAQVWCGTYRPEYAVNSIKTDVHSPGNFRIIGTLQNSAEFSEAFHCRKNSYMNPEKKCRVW
# Protocol: 1. In-Vitro Investigation of the NEP Inhibitory Action of the Substances
# In this test, the measure of the inhibitory activity of the substances which was determined was their IC50 value. The IC50 value of a test substance having enzyme-inhibitory activity is that concentration of the test substance at which 50% of the enzymatic activity of the NEP is blocked.
# 70 μl test buffer, 10 μl enzyme working solution and 10 μl test substance solution were mixed in an Eppendorf vessel and preincubated at 37° C. for 15 minutes (=min.). Then 10 μl substrate stock solution was added and the test batch was incubated for 60 minutes at 37° C. The enzymatic reaction was then ended by 5-minutes' heating to 95° C. After centrifugation (Heraeus Biofuge B, 3 min.), the liquid supernatant was investigated by HPLC in accordance with the following specifications.
# The substrate was separated from cleavage products by means of reversed-phase HPLC (CC 125/4 Nucleosil 300/5 C18 RP column with CC 8/4 Nucleosil 100/5 C18 precolumn, from Macherey-Nagel, Düren, Germany). For this, 60 μl of the test mixture was injected into the HPLC sample injection point and the column was then eluted at a flow rate of 1 ml/min with the following gradient:
# Mobile Phase B: 100% acetonitrile+0.5M H3PO4
# All the peptides were detected by absorption at 214 nm and by fluorescence with an excitation wavelength of 328 nm and an emission wavelength of 393 nm.
# Upon enzymatic cleavage of the peptide, the fluorophore (=Mca) and the quencher end up in different peptide fragments, which reduces the effectiveness of the quench. […] The increasing fluorescence signal (corresponds to the area, A) of the HPLC peak of the peptide with the non-quenched Mca fluorophore is used for the further calculations. This signal was compared for samples with (=Ainhib) and without (=Acontrol) test substance of Formula I, and the value “% inhibition” was calculated on the basis of the respective peak areas according to the following formula: % inhibition=100*(1−Ainhib/Acontrol)
# All the samples were measured in duplicates and average values were calculated therefrom. A standard inhibitor (10 nM thiorphan) and a solvent control (0.1% DMSO) were likewise measured as quality controls on each run. In this test model the test substances of Formula I listed in the following Table 1 had the IC50 values given below: […]
# [4] = target: T2, His6-tagged hSEP ectodomain (Homo sapiens, UniProt Q495T6); assay: In vitro investigation of the hSEP-inhibitory action (fluorescence-quenched Big-ET-1 analogue, HPLC); assay type: biochemical
# T2 construct: His6-tagged hSEP ectodomain; His6; purchased Innogenetics, Ghent, Belgium
# T2 sequence (Q495T6 49-779 limits assumed): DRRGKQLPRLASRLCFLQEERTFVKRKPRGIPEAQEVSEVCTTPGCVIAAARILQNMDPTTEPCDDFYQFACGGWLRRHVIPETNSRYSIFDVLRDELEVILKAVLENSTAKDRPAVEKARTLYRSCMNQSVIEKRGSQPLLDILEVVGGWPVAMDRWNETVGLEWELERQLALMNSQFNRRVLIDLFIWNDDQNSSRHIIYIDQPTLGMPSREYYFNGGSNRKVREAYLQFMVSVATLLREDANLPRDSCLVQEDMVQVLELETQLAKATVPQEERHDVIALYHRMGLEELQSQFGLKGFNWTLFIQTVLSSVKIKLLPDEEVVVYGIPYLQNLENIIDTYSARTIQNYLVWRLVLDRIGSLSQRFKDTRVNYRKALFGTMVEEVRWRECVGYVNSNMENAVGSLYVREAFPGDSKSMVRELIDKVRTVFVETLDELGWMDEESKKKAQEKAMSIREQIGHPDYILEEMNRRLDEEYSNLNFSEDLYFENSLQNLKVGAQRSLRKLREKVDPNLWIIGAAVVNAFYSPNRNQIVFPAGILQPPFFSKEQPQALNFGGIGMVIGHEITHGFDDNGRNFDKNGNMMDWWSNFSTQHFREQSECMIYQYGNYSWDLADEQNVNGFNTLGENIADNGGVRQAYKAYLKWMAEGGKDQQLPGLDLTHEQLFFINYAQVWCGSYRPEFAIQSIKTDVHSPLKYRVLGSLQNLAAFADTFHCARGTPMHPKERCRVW
# Protocol: 2. In Vitro Investigation of the hSEP-Inhibitory Action of the Substances
# In this test, the measure of the inhibitory activity of the substances which was determined was their IC50 value. The IC50 value of a test substance having enzyme-inhibitory activity is that concentration of the test substance at which 50% of the enzymatic activity of the hSEP is blocked.
# The test and the HPLC procedure were carried out analogously to the manner set forth above for determining the in vitro inhibitory action of the test substances on NEP. 10 nM phosphoramidon served as standard inhibitor in the HPLC procedure. In this test model the test substances of Formula I listed in the following Table 2 had the IC50 values given below: […]
# [5] = Plasma protein binding, equilibrium dialysis, rat plasma; assay type: in vitro ADME; details: rat plasma (10% for routine testing), 37° C., pH 7.4, 10% plasma (100% for low binders), read-out: % bound (rat plasma) (converted)
# Protocol: (§1) Plasma protein binding of the test substances of Formula I was measured using a validated equilibrium dialysis method. The dialysis cells consisted of two halves separated by a semi-permeable membrane slightly tensioned in between. […] Before being used, the membranes were re-hydrated by soaking in water followed by the dialysis buffer. Plasma (10% for routine testing, and 100% for compounds found to have a low protein binding) was heated to 37° C. and adjusted to pH 7.4 before use. 5 μM test compound solutions (final dimethylsulfoxide concentration 0.5%) were prepared in isotonic phosphate buffer containing rat or human plasma. The plasma-containing solution was on one side of the membrane, and the plasma-free on the other. Incubations were performed overnight (10% plasma assay), or for 2 hours (100% plasma assay) in triplicate. The cells were mounted in a drive unit that rotated the cells and ensured a uniform equilibrium was obtained. The equilibrium was temperature controlled by the drive unit being immersed in a water bath at 37° C. At the end of the equilibration time, the cells were emptied. The solutions for each batch of compounds were combined into two groups (plasma-free and plasma-containing) then cassette analysed by LC-MS/MS using two sets of calibration standards for plasma-free (7 points) and plasma-containing solutions (6 points). The percentage of protein bound compound was calculated as follows: [formula] PC=sample concentration in protein containing side; PF=sample concentration in protein free side;
# [6] = Plasma protein binding, equilibrium dialysis, human plasma; assay type: in vitro ADME; details: human plasma (10% for routine testing), 37° C., pH 7.4, 10% plasma (100% for low binders), read-out: % bound (human plasma) (converted)
# Protocol: as §1
SMILES,change in vivo at 10 µmol/kg [1] [%],ED50 [2] [µmol/kg],change in vivo at 3 µmol/kg [1] [%],IC50 [3] [nM],IC50 [4] [nM],fraction unbound at 5 μM [5],fraction unbound at 5 μM [6]
"CNCCN(C)C(=O)CC(CC1(C(=O)NC2CCc3ccccc3N(CC(=O)O)C2=O)CCCC1)C(=O)O (racemic) [Example 68, 2-{[1-({[1-(carboxymethyl)-2-oxo-2,3,4,5-tetrahydro-1H-1-benzazepin-3-yl]amino}carbonyl)cyclopentyl]methyl}-4-{methyl[2-(methylamino)ethyl]amino}-4-oxobutanoic acid]",-108,0.7,,,,,
CCOC(=O)C(CC(=O)NCCCO)CC1(C(=O)N[C@H]2CCc3ccccc3N(CC(=O)O)C2=O)CCCC1 (stereo in doubt) [Example 8],-113,0.2,,,,,
"CN(CCCCN)C(=O)CC(CC1(C(=O)NC2CCc3ccccc3N(CC(=O)O)C2=O)CCCC1)C(=O)O (racemic) [Example 75, 4-[(4-aminobutyl)(methyl)amino]-2-{[1-({[1-(carboxymethyl)-2-oxo-2,3,4,5-tetrahydro-1H-1-benzazepin-3-yl]amino}carbonyl)cyclopentyl]methyl}-4-oxobutanoic acid]",,0.1,-52,,,,
"CCN(CCCN)C(=O)CC(CC1(C(=O)NC2CCc3ccccc3N(CC(=O)O)C2=O)CCCC1)C(=O)O (racemic) [Example 67, 4-[(3-aminopropyl)(ethyl)amino]-2-{[1-({[1-(carboxymethyl)-2-oxo-2,3,4,5-tetrahydro-1H-1-benzazepin-3-yl]amino}carbonyl)cyclopentyl]methyl}-4-oxobutanoic acid]",-109,0.5,,15,12,,
"CC(C)N(C)C(=O)CC(CC1(C(=O)N[C@H]2CCc3ccccc3N(CC(=O)O)C2=O)CCCC1)C(=O)O (single isomer, unassigned) [Example 63]",,0.08,,9,,0.31,0.6
"CN(CCCCCN)C(=O)CC(CC1(C(=O)NC2CCc3ccccc3N(CC(=O)O)C2=O)CCCC1)C(=O)O (racemic) [Example 78, 4-[(5-aminopentyl)(methyl)amino]-2-{[1-({[1-(carboxymethyl)-2-oxo-2,3,4,5-tetrahydro-1H-1-benzazepin-3-yl]amino}carbonyl)cyclopentyl]methyl}-4-oxobutanoic acid]",,< 1,-82,,,,
